# Tested on: NCI-H196 complex spheroid growth, percent test/control
# Assay: Anticancer human tumor NCI-H196 cell line growth inhibition [AhR];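 further: seven days of drug exposure starting three days after plating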;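 on viability, T/C: 100% = DMSO vehicle control wells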
# Details: for IC50: curve of first compound; for viability, T/C: stronger effect = lower value
# Method in brief: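 Complex tumor spheroids co-cultured with HUVEC and human MSC stroma; AhR antagonists tested in combination with standard-of-care and investigational agents. Top concentration at or near clinical Cmax (else 10 microM), half-log dilutions; growth expressed as percent test/control.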
# [1] = second compound 0.1 µM, first compound 0.0316 µM
# [2] = second compound 0.1 µM, first compound 0.1 µM
# [3] = second compound 0.1 µM, first compound 0.316 µM
# [4] = second compound 0.1 µM, first compound 1 µM
# [5] = second compound 0.316 µM, first compound 0.0316 µM
# [6] = second compound 0.316 µM, first compound 0.1 µM
# [7] = second compound 0.316 µM, first compound 0.316 µM
# [8] = second compound 0.316 µM, first compound 1 µM
# [9] = second compound 1 µM, first compound 0.0316 µM
# [10] = second compound 1 µM, first compound 0.1 µM
# [11] = second compound 1 µM, first compound 0.316 µM
# [12] = second compound 1 µM, first compound 1 µM
# [13] = second compound 3.16 µM, first compound 0.0316 µM
# [14] = second compound 3.16 µM, first compound 0.1 µM
# [15] = second compound 3.16 µM, first compound 0.316 µM
# [16] = second compound 3.16 µM, first compound 1 µM
# [17] = second compound 10 µM, first compound 0.0316 µM
# [18] = second compound 10 µM, first compound 0.1 µM
# [19] = second compound 10 µM, first compound 0.316 µM
# [20] = second compound 10 µM, first compound 1 µM
# [21] = second compound 0.1 µM, first compound 3.16 µM
# [22] = second compound 0.1 µM, first compound 10 µM
# [23] = second compound 0.316 µM, first compound 3.16 µM
# [24] = second compound 0.316 µM, first compound 10 µM
# [25] = second compound 1 µM, first compound 3.16 µM
# [26] = second compound 1 µM, first compound 10 µM
# [27] = second compound 3.16 µM, first compound 3.16 µM
# [28] = second compound 3.16 µM, first compound 10 µM
# [29] = second compound 10 µM, first compound 3.16 µM
# [30] = second compound 10 µM, first compound 10 µM
# [31] = second compound 0.1 µM, first compound 0.00949 µM
# [32] = second compound 0.1 µM, first compound 0.03 µM
# [33] = second compound 0.1 µM, first compound 0.0949 µM
# [34] = second compound 0.1 µM, first compound 0.3 µM
# [35] = second compound 0.316 µM, first compound 0.00949 µM
# [36] = second compound 0.316 µM, first compound 0.03 µM
# [37] = second compound 0.316 µM, first compound 0.0949 µM
# [38] = second compound 0.316 µM, first compound 0.3 µM
# [39] = second compound 1 µM, first compound 0.00949 µM
# [40] = second compound 1 µM, first compound 0.03 µM
# [41] = second compound 1 µM, first compound 0.0949 µM
# [42] = second compound 1 µM, first compound 0.3 µM
# [43] = second compound 3.16 µM, first compound 0.00949 µM
# [44] = second compound 3.16 µM, first compound 0.03 µM
# [45] = second compound 3.16 µM, first compound 0.0949 µM
# [46] = second compound 3.16 µM, first compound 0.3 µM
# [47] = second compound 10 µM, first compound 0.00949 µM
# [48] = second compound 10 µM, first compound 0.03 µM
# [49] = second compound 10 µM, first compound 0.0949 µM
# [50] = second compound 10 µM, first compound 0.3 µM
smiles,measurement,setting,value
CC1COCCN1c1cc(-c2ccnn2C)c2ccnc(-c3ccn[nH]3)c2n1 (stereo not given) + Cc1ccccc1N=Nc1ccc(NC(=O)c2ccnn2C)c(C)c1,IC50,second compound 0.1 µM,> 1000 nM
same,IC50,second compound 0.316 µM,> 1000 nM
same,IC50,second compound 1 µM,> 1000 nM
same,IC50,second compound 3.16 µM,> 1000 nM
same,IC50,second compound 10 µM,> 1000 nM
same,"viability, T/C","second compound 0.1 µM, first compound 0.00316 µM",96.4%
same,"viability, T/C","second compound 0.1 µM, first compound 0.01 µM",90.9%
same,"viability, T/C",[1],86%
same,"viability, T/C",[2],66%
same,"viability, T/C",[3],58.3%
same,"viability, T/C",[4],53%
same,"viability, T/C","second compound 0.316 µM, first compound 0.00316 µM",98.9%
same,"viability, T/C","second compound 0.316 µM, first compound 0.01 µM",96.1%
same,"viability, T/C",[5],87.5%
same,"viability, T/C",[6],71.3%
same,"viability, T/C",[7],52.2%
same,"viability, T/C",[8],52.7%
same,"viability, T/C","second compound 1 µM, first compound 0.00316 µM",85.2%
same,"viability, T/C","second compound 1 µM, first compound 0.01 µM",94.5%
same,"viability, T/C",[9],85.5%
same,"viability, T/C",[10],71.1%
same,"viability, T/C",[11],56%
same,"viability, T/C",[12],52.1%
same,"viability, T/C","second compound 3.16 µM, first compound 0.00316 µM",89.2%
same,"viability, T/C","second compound 3.16 µM, first compound 0.01 µM",94.2%
same,"viability, T/C",[13],91.5%
same,"viability, T/C",[14],70.5%
same,"viability, T/C",[15],56.6%
same,"viability, T/C",[16],49.9%
same,"viability, T/C","second compound 10 µM, first compound 0.00316 µM",96.8%
same,"viability, T/C","second compound 10 µM, first compound 0.01 µM",88.9%
same,"viability, T/C",[17],77.9%
same,"viability, T/C",[18],74.6%
same,"viability, T/C",[19],63.4%
same,"viability, T/C",[20],52.8%
CC1COCCN1c1cc(C2(S(C)(=N)=O)CC2)nc(-c2ccnc3[nH]ccc23)n1 (stereo not given) + Cc1ccccc1N=Nc1ccc(NC(=O)c2ccnn2C)c(C)c1,IC50,second compound 0.1 µM,> 10000 nM
same,IC50,second compound 0.316 µM,> 10000 nM
same,IC50,second compound 1 µM,> 10000 nM
same,IC50,second compound 3.16 µM,> 10000 nM
same,IC50,second compound 10 µM,> 10000 nM
same,"viability, T/C",[1],98.5%
same,"viability, T/C",[2],101%
same,"viability, T/C",[3],98.8%
same,"viability, T/C",[4],101%
same,"viability, T/C",[21],81.5%
same,"viability, T/C",[22],69.7%
same,"viability, T/C",[5],99.3%
same,"viability, T/C",[6],102%
same,"viability, T/C",[7],99.2%
same,"viability, T/C",[8],92.5%
same,"viability, T/C",[23],80.5%
same,"viability, T/C",[24],72.6%
same,"viability, T/C",[9],96.3%
same,"viability, T/C",[10],104%
same,"viability, T/C",[11],101%
same,"viability, T/C",[12],94%
same,"viability, T/C",[25],87.7%
same,"viability, T/C",[26],70%
same,"viability, T/C",[13],96.2%
same,"viability, T/C",[14],99.1%
same,"viability, T/C",[15],97.4%
same,"viability, T/C",[16],88.6%
same,"viability, T/C",[27],81.8%
same,"viability, T/C",[28],74%
same,"viability, T/C",[17],85.7%
same,"viability, T/C",[18],93.1%
same,"viability, T/C",[19],101%
same,"viability, T/C",[20],89.7%
same,"viability, T/C",[29],78.3%
same,"viability, T/C",[30],76.6%
COc1ccc([C@@H](O)c2cc(-c3ncnc4cc(N5CCOCC5)ccc34)c(F)cc2Cl)nn1 + Cc1ccccc1N=Nc1ccc(NC(=O)c2ccnn2C)c(C)c1,IC50,second compound 0.1 µM,> 10000 nM
same,IC50,second compound 0.316 µM,> 10000 nM
same,IC50,second compound 1 µM,> 10000 nM
same,IC50,second compound 3.16 µM,> 10000 nM
same,IC50,second compound 10 µM,> 10000 nM
same,"viability, T/C",[1],97.4%
same,"viability, T/C",[2],92.5%
same,"viability, T/C",[3],96%
same,"viability, T/C",[4],81.8%
same,"viability, T/C",[21],72.8%
same,"viability, T/C",[22],65.4%
same,"viability, T/C",[5],95.3%
same,"viability, T/C",[6],102%
same,"viability, T/C",[7],90%
same,"viability, T/C",[8],78.3%
same,"viability, T/C",[23],68.9%
same,"viability, T/C",[24],68%
same,"viability, T/C",[9],85.7%
same,"viability, T/C",[10],88%
same,"viability, T/C",[11],88.6%
same,"viability, T/C",[12],89.3%
same,"viability, T/C",[25],72.6%
same,"viability, T/C",[26],66.6%
same,"viability, T/C",[13],97.3%
same,"viability, T/C",[14],96.8%
same,"viability, T/C",[15],86.8%
same,"viability, T/C",[16],77.1%
same,"viability, T/C",[27],74.6%
same,"viability, T/C",[28],65.1%
same,"viability, T/C",[17],88.1%
same,"viability, T/C",[18],83.8%
same,"viability, T/C",[19],79.4%
same,"viability, T/C",[20],73.1%
same,"viability, T/C",[29],76.5%
same,"viability, T/C",[30],60.3%
Nc1ncn(C2CC(O)C(CO)S2)c(=O)n1 (stereo not given) + Cc1ccccc1N=Nc1ccc(NC(=O)c2ccnn2C)c(C)c1,IC50,second compound 0.1 µM,> 300 nM
same,IC50,second compound 0.316 µM,> 300 nM
same,IC50,second compound 1 µM,> 300 nM
same,IC50,second compound 3.16 µM,> 300 nM
same,IC50,second compound 10 µM,> 300 nM
same,"viability, T/C","second compound 0.1 µM, first compound 0.000949 µM",95%
same,"viability, T/C","second compound 0.1 µM, first compound 0.003 µM",93.4%
same,"viability, T/C",[31],99.1%
same,"viability, T/C",[32],96.8%
same,"viability, T/C",[33],102%
same,"viability, T/C",[34],101%
same,"viability, T/C","second compound 0.316 µM, first compound 0.000949 µM",105%
same,"viability, T/C","second compound 0.316 µM, first compound 0.003 µM",96.2%
same,"viability, T/C",[35],104%
same,"viability, T/C",[36],96%
same,"viability, T/C",[37],101%
same,"viability, T/C",[38],95.4%
same,"viability, T/C","second compound 1 µM, first compound 0.000949 µM",97.6%
same,"viability, T/C","second compound 1 µM, first compound 0.003 µM",89.9%
same,"viability, T/C",[39],97.9%
same,"viability, T/C",[40],87.3%
same,"viability, T/C",[41],91%
same,"viability, T/C",[42],104%
same,"viability, T/C","second compound 3.16 µM, first compound 0.000949 µM",89.3%
same,"viability, T/C","second compound 3.16 µM, first compound 0.003 µM",102%
same,"viability, T/C",[43],100%
same,"viability, T/C",[44],93.7%
same,"viability, T/C",[45],97.7%
same,"viability, T/C",[46],99.5%
same,"viability, T/C","second compound 10 µM, first compound 0.000949 µM",85.1%
same,"viability, T/C","second compound 10 µM, first compound 0.003 µM",82.4%
same,"viability, T/C",[47],86.2%
same,"viability, T/C",[48],86.2%
same,"viability, T/C",[49],90.5%
same,"viability, T/C",[50],92.1%
O=C(C=Cn1cnc(-c2cc(C(F)(F)F)cc(C(F)(F)F)c2)n1)NNc1cnccn1 + Cc1ccccc1N=Nc1ccc(NC(=O)c2ccnn2C)c(C)c1,IC50,second compound 0.1 µM,33.4 nM
same,IC50,second compound 0.316 µM,36.6 nM
same,IC50,second compound 1 µM,34.8 nM
same,IC50,second compound 3.16 µM,35.4 nM
same,IC50,second compound 10 µM,41.3 nM
same,"viability, T/C",[31],71.3%
same,"viability, T/C",[32],54.5%
same,"viability, T/C",[33],6.66%
same,"viability, T/C",[34],6.81%
same,"viability, T/C","second compound 0.1 µM, first compound 0.949 µM",5.42%
same,"viability, T/C","second compound 0.1 µM, first compound 3 µM",7.76%
same,"viability, T/C",[35],72.7%
same,"viability, T/C",[36],58.6%
same,"viability, T/C",[37],8.61%
same,"viability, T/C",[38],5.66%
same,"viability, T/C","second compound 0.316 µM, first compound 0.949 µM",6.01%
same,"viability, T/C","second compound 0.316 µM, first compound 3 µM",6.07%
same,"viability, T/C",[39],79.8%
same,"viability, T/C",[40],56%
same,"viability, T/C",[41],9.47%
same,"viability, T/C",[42],5.55%
same,"viability, T/C","second compound 1 µM, first compound 0.949 µM",8.58%
same,"viability, T/C","second compound 1 µM, first compound 3 µM",8.52%
same,"viability, T/C",[43],68.4%
same,"viability, T/C",[44],56.8%
same,"viability, T/C",[45],9.86%
same,"viability, T/C",[46],4.79%
same,"viability, T/C","second compound 3.16 µM, first compound 0.949 µM",7.89%
same,"viability, T/C","second compound 3.16 µM, first compound 3 µM",8.09%
same,"viability, T/C",[47],74.6%
same,"viability, T/C",[48],64%
same,"viability, T/C",[49],13.8%
same,"viability, T/C",[50],10.6%
same,"viability, T/C","second compound 10 µM, first compound 0.949 µM",8.84%
same,"viability, T/C","second compound 10 µM, first compound 3 µM",12.8%

# From PubChem BioAssay AID1919016 (Molecular Pharmacology Branch, DTP, NCI, 2023)
